From patent US20250268903A1, “RXFP1 AGONISTS” (BRISTOL-MYERS SQUIBB COMPANY, priority 2021, published 2025)

Molecular target: T1, human RXFP1 (Homo sapiens, UniProt Q9HBX9)
T1 construct: expressed in transfected cells
T1 sequence (Q9HBX9 1-757): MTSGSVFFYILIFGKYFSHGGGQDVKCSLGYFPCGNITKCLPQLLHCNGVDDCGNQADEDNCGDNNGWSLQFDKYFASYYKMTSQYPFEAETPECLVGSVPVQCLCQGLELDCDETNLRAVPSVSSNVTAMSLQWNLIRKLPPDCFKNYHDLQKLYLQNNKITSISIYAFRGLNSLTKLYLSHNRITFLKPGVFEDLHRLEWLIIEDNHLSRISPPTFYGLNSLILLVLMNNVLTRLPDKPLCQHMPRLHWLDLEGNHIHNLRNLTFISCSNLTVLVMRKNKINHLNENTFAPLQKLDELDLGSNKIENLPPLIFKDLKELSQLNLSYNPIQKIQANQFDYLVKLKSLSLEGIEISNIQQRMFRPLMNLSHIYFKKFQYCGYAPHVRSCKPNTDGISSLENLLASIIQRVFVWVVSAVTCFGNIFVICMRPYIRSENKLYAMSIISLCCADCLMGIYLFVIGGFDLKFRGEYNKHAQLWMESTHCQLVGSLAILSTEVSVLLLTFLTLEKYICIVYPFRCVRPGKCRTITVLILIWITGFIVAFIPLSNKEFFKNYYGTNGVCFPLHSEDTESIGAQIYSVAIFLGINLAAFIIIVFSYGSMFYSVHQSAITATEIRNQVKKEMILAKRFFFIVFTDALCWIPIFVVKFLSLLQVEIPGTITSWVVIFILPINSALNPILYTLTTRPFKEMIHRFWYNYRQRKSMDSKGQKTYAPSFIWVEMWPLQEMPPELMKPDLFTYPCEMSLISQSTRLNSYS
Assay: hRXFP1 HEK293 cAMP assay (HTRF)
Assay type: cell-based
Conditions: HEK293 cells stably expressing human RXFP1, 30 min at room temperature
Procedure: RXFP1 Cyclic Adenosine Monophosphate (cAMP) Assays. […] Cells were dissociated and suspended in assay buffer. The assay buffer was HBSS buffer (with calcium and magnesium) containing 20 mM HEPES, 0.05% BSA, and 0.5 mM IBMX. Cells (3000 cells per well, except 1500 cell per well for HEK293 cells stably expressing human RXFP1) were added to 384-well Proxiplates (Perkin-Elmer). Cells were immediately treated with test compounds in DMSO (2% final) at final concentrations in the range of 0.010 nM to 50 μM. Cells were incubated for 30 min at room temperature. The level of intracellular cAMP was determined using the HTRF HiRange cAMP assay reagent kit (Cisbio) according to manufacturer's instructions. Solutions of cryptate conjugated anti-cAMP and d2 fluorophore-labelled cAMP were made in a supplied lysis buffer separately. Upon completion of the reaction, the cells were lysed with equal volume of the d2-cAMP solution and anti-cAMP solution. […] The potency and activity of a compound to […] cAMP production was then determined by fitting to a 4-parametric logistic equation from a plot of cAMP level versus compound concentrations.

Compound | EC50
COc1ccc(CCCO)cc1C(=O)NC1C2CCC(/C2=C/C2CCCOC2)[C@@H]1C(=O)Nc1ccc(F)c(C(F)(F)F)c1 (single isomer, unassigned) [Example 171, (7Z)-N-[4-fluoro-3-(trifluoromethyl)phe-nyl]-3-[5-(3-hydroxypropyl)-2-methoxybenzamido]-7-[(oxan-3-yl)methylidene]bicy-clo[2.2.1]heptane-2-carboxamide] | 397 nM
COc1ccc(CCC(C)(C)O)cc1C(=O)NC1C2CCC(/C2=C/C2CCCOC2)[C@@H]1C(=O)Nc1ccc(F)c(C(F)(F)F)c1 (single isomer, unassigned) [Example 172, (7Z)-N-[4-fluoro-3-(trifluoromethyl)phe-nyl]-3-[5-(3-hydroxy-3-methylbutyl)-2-methoxybenzamido]-7-[(oxan-3-yl)methylidene]bicy-clo[2.2.1]heptane-2-carboxamide] | 39 nM
COc1ccc(CCC(C)(C)O)cc1C(=O)NC1C2CCC(/C2=C/C2CCCOC2)[C@@H]1C(=O)Nc1ccc(F)c(C(F)(F)F)c1 (single isomer, unassigned) [Example 173, (7Z)-N-[4-fluoro-3-(trifluoromethyl)phe-nyl]-3-[5-(3-hydroxy-3-methylbutyl)-2-methoxybenzamido]-7-[(oxan-3-yl)methylidene]bicy-clo[2.2.1]heptane-2-carboxamide] | 186 nM
COc1ccc(C23CCC(C(C)(C)O)(CC2)CC3)cc1C(=O)N[C@H]1[C@@H](C(=O)Nc2ccc(F)c(C(F)(F)F)c2)[C@H]2CC[C@@H]1/C2=C\C1CC1 (single isomer, unassigned) [Example 274] | 99.8 nM
COc1ccc(C23CCC(C(C)(C)O)(CC2)CC3)cc1C(=O)N[C@H]1[C@@H](C(=O)Nc2ccc(F)c(C(F)(F)F)c2)[C@H]2CC[C@@H]1/C2=C\C1CC1 (single isomer, unassigned) [Example 276] | 2600 nM
COc1ccc(C2CC2C(=O)N2CCC(O)CC2)cc1C(=O)N[C@H]1[C@@H](C(=O)Nc2ccc(F)c(C(F)(F)F)c2)[C@H]2CC[C@@H]1/C2=C\C1CC1 (single isomer, unassigned) [Example 321] | 28.5 nM
COc1ccc(C2CC2C(=O)N2CCC(O)CC2)cc1C(=O)N[C@H]1[C@@H](C(=O)Nc2ccc(F)c(C(F)(F)F)c2)[C@H]2CC[C@@H]1/C2=C\C(F)(F)F (single isomer, unassigned) [Example 322] | 331 nM
COc1ccc(C2CC2C(=O)N2CCC(O)CC2)cc1C(=O)N[C@H]1[C@@H](C(=O)Nc2ccc(F)c(C(F)(F)F)c2)[C@H]2CC[C@@H]1/C2=C\C(F)(F)F (single isomer, unassigned) [Example 323] | 21.5 nM
COc1ccc(C2CC2C(=O)N2CCC(O)CC2)cc1C(=O)N[C@H]1[C@@H](C(=O)Nc2ccc(F)c(C(F)(F)F)c2)[C@H]2CC[C@@H]1/C2=C\C1CC1 (single isomer, unassigned) [Example 324] | 4.95 nM
COc1ccc(C2CC2C(=O)N2CCC(O)CC2)cc1C(=O)N[C@H]1[C@@H](C(=O)Nc2ccc(F)c(C(F)(F)F)c2)[C@H]2CC[C@@H]1/C2=C\C(F)(F)F (single isomer, unassigned) [Example 325] | 2940 nM
COc1ccc(C2CC2C(=O)N2CCC(O)CC2)cc1C(=O)N[C@H]1[C@@H](C(=O)Nc2ccc(F)c(C(F)(F)F)c2)[C@H]2CC[C@@H]1/C2=C\C(F)(F)F (single isomer, unassigned) [Example 326] | 4010 nM
COC(=O)C1CC(c2ccc(OC)c(C(=O)N[C@H]3[C@@H](C(=O)Nc4ccc(F)c(C(F)(F)F)c4)[C@H]4CC[C@@H]3/C4=C\C3CC3)c2)C1 (single isomer, unassigned) [Example 328] | 21.3 nM
COC(=O)C1CC(c2ccc(OC)c(C(=O)N[C@H]3[C@@H](C(=O)Nc4ccc(F)c(C(F)(F)F)c4)[C@H]4CC[C@@H]3/C4=C\C3CC3)c2)C1 (single isomer, unassigned) [Example 332] | 112 nM
COc1ccc(C2CC3CC(O)CC32)cc1C(=O)N[C@H]1[C@@H](C(=O)Nc2ccc(F)c(C(F)(F)F)c2)[C@H]2CC[C@@H]1/C2=C\C1CC1 (single isomer, unassigned) [Example 340] | 78.5 nM
COc1ccc(C2CC3CC(O)CC32)cc1C(=O)N[C@H]1[C@@H](C(=O)Nc2ccc(F)c(C(F)(F)F)c2)[C@H]2CC[C@@H]1/C2=C\C1CC1 (single isomer, unassigned) [Example 341] | 126 nM
COc1ccc(C2CC3CC(O)CC32)cc1C(=O)N[C@H]1[C@@H](C(=O)Nc2ccc(F)c(C(F)(F)F)c2)[C@H]2CC[C@@H]1/C2=C\C1CC1 (single isomer, unassigned) [Example 342] | 27.8 nM
COc1ccc(C2CC3CC(O)CC32)cc1C(=O)N[C@H]1[C@@H](C(=O)Nc2ccc(F)c(C(F)(F)F)c2)[C@H]2CC[C@@H]1/C2=C\C1CC1 (single isomer, unassigned) [Example 343] | 75.2 nM
COc1ccc(C2CC3CC(CO)CC32)cc1C(=O)N[C@H]1[C@@H](C(=O)Nc2ccc(F)c(C(F)(F)F)c2)[C@H]2CC[C@@H]1/C2=C\C1CC1 (single isomer, unassigned) [Example 348] | 34 nM
COc1ccc(C2CC3CC(CO)CC32)cc1C(=O)N[C@H]1[C@@H](C(=O)Nc2ccc(F)c(C(F)(F)F)c2)[C@H]2CC[C@@H]1/C2=C\C1CC1 (single isomer, unassigned) [Example 349] | 60.9 nM
COc1ccc(C2CC3CC(CO)CC32)cc1C(=O)N[C@H]1[C@@H](C(=O)Nc2ccc(F)c(C(F)(F)F)c2)[C@H]2CC[C@@H]1/C2=C\C1CC1 (single isomer, unassigned) [Example 350] | 17.7 nM
COc1ccc(C2CC3CC(CO)CC32)cc1C(=O)N[C@H]1[C@@H](C(=O)Nc2ccc(F)c(C(F)(F)F)c2)[C@H]2CC[C@@H]1/C2=C\C1CC1 (single isomer, unassigned) [Example 351] | 27.7 nM
COc1ccc(C2CC3CC(CO)CC32)cc1C(=O)N[C@H]1[C@@H](C(=O)Nc2ccc(F)c(C(F)(F)F)c2)[C@H]2CC[C@@H]1/C2=C\C1CC1 (single isomer, unassigned) [Example 352] | 49.9 nM
COc1ccc(N(Cc2ccccc2)Cc2ccccc2)cc1C(=O)N[C@H]1[C@@H](C(=O)Nc2ccc(F)c(C(F)(F)F)c2)[C@H]2CC[C@@H]1/C2=C\C1CC1 [Example 1, (1R,2S,3R,4R,Z)-7-(cyclopropylmethylene)-3-(5-(dibenzylamino)-2-methoxybenzamido)-N-(4-fluoro-3-(trifluoromethyl)phenyl) bicyclo[2.2.1]heptane-2-carboxamide] | 675 nM
COc1ccc(Nc2ccccc2)cc1C(=O)N[C@H]1[C@@H](C(=O)Nc2ccc(F)c(C(F)(F)F)c2)[C@H]2CC[C@@H]1/C2=C\C1CC1 [Example 2, (1R,2S,3R,4R,Z)-7-(cyclopropylmethylene)-N-(4-fluoro-3-(trifluoromethyl)phenyl)-3-(2-methoxy-5-(phenylamino)benzamido) bicyclo[2.2.1]heptane-2-carboxamide] | 280 nM
COc1ccc(S(=O)(=O)Cc2ccccc2)cc1C(=O)N[C@@H]1C2CCC(/C2=C/C(F)(F)F)[C@@H]1C(=O)Nc1ccc(F)c(C(F)(F)F)c1 (stereo partly drawn) [Example 3, (2S,3R,7Z)-N-[4-fluoro-3-(trifluoromethyl)phe-nyl]-3-(2-methoxy-5-phenylmethanesulfo-nylbenzamido)-7-(2,2,2-trifluoroethylidene)bi-cyclo[2.2.1]heptane-2-carboxamide] | 560 nM
COc1ccc(S(=O)(=O)CCO)cc1C(=O)N[C@H]1[C@@H](C(=O)Nc2ccc(F)c(C(F)(F)F)c2)[C@H]2CC[C@@H]1/C2=C\C(F)(F)F [Example 4, (1R,2S,3R,4R,Z)—N-(4-fluoro-3-(trifluoromethyl)phenyl)-3-(5-((2-hydroxyethyl)sulfonyl)-2-methoxybenzamido)-7-(2,2,2-trifluoroethylidene) bicyclo[2.2.1]heptane-2-carboxamide] | 337 nM
